Measurements: patent publication US11535838B2, “Serine protease molecules and therapies” (Research Development Foundation, priority 2012, dated 2022)

Experiments:
[1] = Enzymatic assay of GrB component, continuous colorimetric assay; assay type: biochemical; details: substrate BAADT, 25° C., native GrB as standard
Description: The enzymatic activity of the GrB component was determined in a continuous colorimetric assay using N-α-t-butoxycarbonyl-L-alanyl-L-alanyl-L-aspartyl-thiobenzylester (BAADT) as a specific substrate (Liu et al., 2003). Assays consisted of commercial human GrB (Enzyme Systems Products, Livermore, Calif.) or GrB-based fusion proteins in BAADT at 25° C. […] The specific activity of GrB-based fusion proteins was calculated using native GrB as the standard.

U87MG = test: Cytotoxic effects of GrB versus GrB-TWEAK; assay type: cell-based
Source text: (§1) Further GrB expression constructs were developed and tested. (GrB) encoded GrB, plasmid designation pSECTag-GrB. […] These constructs were expressed and tested.

MDA-MB435/MDR1 = test: Cytotoxic effects of GrB versus GrB-TWEAK; assay type: cell-based
Source text: as §1

HeyA8-MDR = test: Cytotoxic effects of GrB versus GrB-TWEAK; assay type: cell-based
Source text: as §1

A172 = test: Cytotoxic effects of GrB versus GrB-TWEAK; assay type: cell-based
Source text: as §1

ES-2 = test: Cytotoxic effects of GrB versus GrB-TWEAK; assay type: cell-based
Source text: as §1

HT-1080 = test: Cytotoxic effects of GrB versus GrB-TWEAK; assay type: cell-based
Source text: as §1

SK-Mel-28 = test: Cytotoxic effects of GrB versus GrB-TWEAK; assay type: cell-based
Source text: as §1

SKBR3 [2] = test: Cytotoxic effects of GrB versus GrB-TWEAK; assay type: cell-based
Source text: as §1

HeyA8 = test: Cytotoxic effects of GrB versus GrB-TWEAK; assay type: cell-based
Source text: as §1

SK-Mel-1 = test: Cytotoxic effects of GrB versus GrB-TWEAK; assay type: cell-based
Source text: as §1

A2780 = test: Cytotoxic effects of GrB versus GrB-TWEAK; assay type: cell-based
Source text: as §1

BxPC-3 = test: Cytotoxic effects of GrB versus GrB-TWEAK; assay type: cell-based
Source text: as §1

AAB-527 [3] = test: Cytotoxic effects of GrB versus GrB-TWEAK; assay type: cell-based
Source text: as §1

WM35 [4] = test: Cytotoxic effects of GrB versus GrB-TWEAK; assay type: cell-based
Source text: as §1

MDA-MB231 = test: Cytotoxic effects of GrB versus GrB-TWEAK; assay type: cell-based
Source text: as §1

MCF-7 [5] = test: Cytotoxic effects of GrB versus GrB-TWEAK; assay type: cell-based
Source text: as §1

T-24 = test: Cytotoxic effects of GrB versus GrB-TWEAK; assay type: cell-based
Source text: as §1

SB2 [6] = test: Cytotoxic effects of GrB versus GrB-TWEAK; assay type: cell-based
Source text: as §1

A375-M [7] = test: Cytotoxic effects of GrB versus GrB-TWEAK; assay type: cell-based
Source text: as §1

Jurkat = test: Cytotoxic effects of GrB versus GrB-TWEAK; assay type: cell-based
Source text: as §1

MDA-MB435 = test: Cytotoxic effects of GrB versus GrB-TWEAK; assay type: cell-based
Source text: as §1

SK-Mel-5 = test: Cytotoxic effects of GrB versus GrB-TWEAK; assay type: cell-based
Source text: as §1

OC-316 = test: Cytotoxic effects of GrB versus GrB-TWEAK; assay type: cell-based
Source text: as §1

HEY = test: Cytotoxic effects of GrB versus GrB-TWEAK; assay type: cell-based
Source text: as §1

HT-29 [8] = test: Cytotoxic effects of GrB versus GrB-TWEAK; assay type: cell-based
Source text: as §1

eB-1 = test: In vitro cytotoxic effects of GrB-based fusions, crystal violet; assay type: cell-based, human; details: Table 11, eB-1, 72 h exposure
AAB-527 [9] = test: Cytotoxic effects of GrB/ZME fusion constructs; assay type: cell-based; details: AAB-527, specifically targeted by ZME
Source text: (§2) GrB-ZME(VL-VH) fusion proteins were constructed as indicated above using different linkers between the GrB and ZME sequences. The construct SL used the G4S linker; LL was four repeats of the HL (EAAAK (SEQ ID NO: 14)) linker and X was a G4S+218 linker.
(§3) Two glycosylation sites were identified within the GrB molecule (d1 and d2) and modified the GrB/scFvMEL fusion construct as detailed above and as shown in FIG. 4 (d1 indicates N51S; d2 indicates N84A). Each glycosylation site was modified and then a molecule containing both modifications was generated. The individual modifications had little effect on in vitro GrB enzymatic activity (see, e.g., FIG. 4). […] There was little impact on the non-specific cell line (SKOV3).
(§4) Three expression constructs were developed and tested. (LL) encoded GrB-HL-HL-HL-HL-ZME(VL-VH), plasmid designation pSECTag-GrB-HL4-ZME; (E) encoded GrB HL HL HL HL T1 ZME(VL-VH), plasmid designation pSECTag-GrB-HL4-T1-ZME; and (J) (LL) encoded GrB (d1, A, N) HL HL HL HL ZME(VL-VH), plasmid designation pSECTag-GrB-HL4-ZME. The constructs were expressed and tested. […] Incorporation of d1 modified GrB into the construct further increased the specific cytotoxicity of the construct with no impact on non-specific cytotoxicity.
(§5) These constructs were expressed and tested.
(§6) These constructs were expressed and tested. […] Incorporation of the “26” molecule increased the toxicity to target and non-target cells alike.

SKOV3 [10] = test: Cytotoxic effects of GrB/ZME fusion constructs; assay type: cell-based; details: SKOV3, non-specific control
Source text: as §2, §3, §4, §5, §6

A375-M [11] = test: Cytotoxic effects of GrB/ZME fusion constructs; assay type: cell-based; details: specifically targeted by ZME
Source text: as §2, §3, §4, §5, §6

Me180 = test: In vitro cytotoxic effects of GrB-based fusions, crystal violet; assay type: cell-based, human; details: Table 11, Me180, 72 h exposure
A375 = test: Cytotoxicity of GrB-Fc-IT4 constructs; assay type: cell-based
Source text: (§7) As an initial test of this arrangement a construct was produced comprising GrB-Fc-IT4 (scFv). Specifically, the IT4 scFv targets the product of the tumor necrosis factor receptor superfamily, member 12A (TNFRSF12A) gene and was previously described in Zhou et al., 2011, which is incorporated herein by reference. The sequence of the fusion protein produced by the construct is provided as SEQ ID NO: 45. The constructs was expressed and purified as detailed supra and tested for activity against a panel of cells lines (using GrB alone a control).

AsPc-1 = test: Cytotoxicity of GrB-Fc-IT4 constructs; assay type: cell-based
Source text: as §7

MDA-MD-231-Luc = test: Cytotoxicity of GrB-Fc-IT4 constructs; assay type: cell-based
Source text: as §7

H1975 = test: Cytotoxicity of GrB-Fc-IT4 constructs; assay type: cell-based
Source text: as §7

L3.6p1 = test: Cytotoxicity of GrB-Fc-IT4 constructs; assay type: cell-based
Source text: as §7

A549 = test: Cytotoxicity of GrB-Fc-IT4 constructs; assay type: cell-based
Source text: as §7

H520 = test: Cytotoxicity of GrB-Fc-IT4 constructs; assay type: cell-based
Source text: as §7

WM35P2N1 = test: Cytotoxicity of GrB-Fc-IT4 constructs; assay type: cell-based
Source text: as §7

Capan-2 = test: Cytotoxicity of GrB-Fc-IT4 constructs; assay type: cell-based
Source text: as §7

HCC827 = test: Cytotoxicity of GrB-Fc-IT4 constructs; assay type: cell-based
Source text: as §7

HCC2279 = test: Cytotoxicity of GrB-Fc-IT4 constructs; assay type: cell-based
Source text: as §7

WM35 [12] = test: Cytotoxicity of GrB-Fc-IT4 constructs; assay type: cell-based
Source text: as §7

Capan-1 = test: Cytotoxicity of GrB-Fc-IT4 constructs; assay type: cell-based
Source text: as §7

MCF-7 [13] = test: Cytotoxicity of GrB-Fc-IT4 constructs; assay type: cell-based
Source text: as §7

H1437 = test: Cytotoxicity of GrB-Fc-IT4 constructs; assay type: cell-based
Source text: as §7

MDA-MB-435 = test: Cytotoxicity of GrB-Fc-IT4 constructs; assay type: cell-based
Source text: as §7

H3255 = test: Cytotoxicity of GrB-Fc-IT4 constructs; assay type: cell-based
Source text: as §7

SB2 [14] = test: Cytotoxicity of GrB-Fc-IT4 constructs; assay type: cell-based
Source text: as §7

H2073 = test: Cytotoxicity of GrB-Fc-IT4 constructs; assay type: cell-based
Source text: as §7

H358 = test: Cytotoxicity of GrB-Fc-IT4 constructs; assay type: cell-based
Source text: as §7

MEF 3.5 −/− = test: Cytotoxicity of GrB-Fc-IT4 constructs; assay type: cell-based
Source text: as §7

SK-MEF-28 = test: Cytotoxicity of GrB-Fc-IT4 constructs; assay type: cell-based
Source text: as §7

MDA-MB-231 = test: Cytotoxicity of GrB-Fc-IT4 constructs; assay type: cell-based
Source text: as §7

HT-29 [15] = test: Cytotoxicity of GrB-Fc-IT4 constructs; assay type: cell-based
Source text: as §7

MDA MB453 = test: In vitro cytotoxic effects of GrB-based fusions, crystal violet; assay type: cell-based, human; details: Table 11, MDA MB453, 72 h exposure
Calu3 = test: as above; assay type: cell-based; details: Table 11, Calu3, 72 h exposure
MDA MB435 = test: as above; assay type: cell-based; details: Table 11, MDA MB435, 72 h exposure
Calu-3 = test: Cytotoxic effects of GrB/4D5 fusion constructs with and without a translocation domain; assay type: cell-based; details: Calu-3, Her2 Exp. High
Source text: (§8) Further GrB expression constructs were developed and tested.
as §5

NCI-N87 [16] = test: as above; assay type: cell-based; details: NCI-N87, Her2 Exp. High
Source text: as §8, §5

SKBR3 [17] = test: as above; assay type: cell-based; details: SKBR3, Her2 Exp. High
Source text: as §8, §5

SKOV3 [18] = test: as above; assay type: cell-based; details: SKOV3, Her2 Exp. High
Source text: as §8, §5

Me-180 = test: as above; assay type: cell-based; details: Me-180, Her2 Exp. none
Source text: as §8, §5

MDA-MB-453 = test: as above; assay type: cell-based; details: MDA-MB-453, Her2 Exp. High
Source text: as §8, §5

NCI-N87 [19] = test: In vitro cytotoxic effects of GrB-based fusions, crystal violet; assay type: cell-based; details: Table 11, NCI-N87, 72 h exposure

native GrB: commercial human GrB (Enzyme Systems Products) used as the standard
GrB enzymatic activity [1]: 1.19×10^5 U/μmoL

GrB: recombinant Granzyme B without targeting moiety, plasmid pSECTag-GrB, used as control
IC50 (U87MG): 825 nM | IC50 (MDA-MB435/MDR1): 447 nM | IC50 (HeyA8-MDR): > 700 nM | IC50 (A172): 1910 nM | IC50 (ES-2): 1440 nM | IC50 (HT-1080): 1300 nM | IC50 (SK-Mel-28): > 1920 nM | IC50 (SKBR3 [2]): 660 nM | IC50 (HeyA8): 841 nM | IC50 (SK-Mel-1): > 1920 nM | IC50 (A2780): > 1300 nM | IC50 (BxPC-3): > 1920 nM | IC50 (AAB-527 [3]): 1040 nM | IC50 (WM35 [4]): > 1920 nM | IC50 (MDA-MB231): > 1920 nM | IC50 (MCF-7 [5]): > 1920 nM | IC50 (T-24): 2630 nM | IC50 (SB2 [6]): > 1920 nM | IC50 (A375-M [7]): > 1920 nM | IC50 (Jurkat): > 700 nM | IC50 (MDA-MB435): 445 nM | IC50 (SK-Mel-5): 3010 nM | IC50 (OC-316): > 1920 nM | IC50 (HEY): 1020 nM | IC50 (HT-29 [8]): 800 nM | IC50 (eB-1): > 1500 nM | IC50 (AAB-527 [9]): > 2000 nM | IC50 (SKOV3 [10]): > 2000 nM | IC50 (A375-M [11]): > 2000 nM | IC50 (Me180): > 1500 nM | IC50 (A375): > 1920 nM | IC50 (AsPc-1): 1300 nM | IC50 (MDA-MD-231-Luc): 3550 nM | IC50 (H1975): > 3200 nM | IC50 (L3.6p1): 1220 nM | IC50 (A549): 602 nM | IC50 (H520): 259 nM | IC50 (WM35P2N1): 1540 nM | IC50 (Capan-2): > 3200 nM | IC50 (HCC827): 1410 nM | IC50 (HCC2279): 526 nM | IC50 (WM35 [12]): > 1920 nM | IC50 (Capan-1): 2340 nM | IC50 (MCF-7 [13]): > 1920 nM | IC50 (H1437): > 3200 nM | IC50 (MDA-MB-435): 445 nM | IC50 (H3255): 2360 nM | IC50 (SB2 [14]): > 1920 nM | IC50 (H2073): > 3200 nM | IC50 (H358): > 3200 nM | IC50 (MEF 3.5 −/−): > 3200 nM | IC50 (SK-MEF-28): > 1920 nM | IC50 (MDA-MB-231): > 1930 nM | IC50 (HT-29 [15]): > 3200 nM | IC50 (MDA MB453): > 1500 nM | IC50 (Calu3): > 1500 nM | IC50 (MDA MB435): > 1500 nM | IC50 (Calu-3): > 1000 nM | IC50 (NCI-N87 [16]): > 1000 nM | IC50 (SKBR3 [17]): > 1000 nM | IC50 (SKOV3 [18]): > 1000 nM | IC50 (Me-180): > 1000 nM | IC50 (MDA-MB-453): > 1000 nM | IC50 (NCI-N87 [19]): > 1500 nM
